Measured values published in PubChem BioAssay (NCI).
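Step 1: Grow cells in 96-well plates. Step 2: Expose to compound for 48 hours at 5 concentrations. Step 3: Interpolate endpoints linearly; if unreached, use highest concentration. GI50 is the concentration that inhibits growth by half. TGI denotes the concentration required for complete inhibition of growth.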

Tests used:
Assay in all cases: DTP human tumour cell line panel, 48 h
[1] = tested on: A498 renal
[2] = tested on: A549 NSCLC
[3] = tested on: BT-549 breast
[4] = tested on: COLO 205 colon
[5] = tested on: HCT-116 colon
[6] = tested on: HS 578T breast
[7] = tested on: LOX IMVI melanoma
[8] = tested on: MALME-3M melanoma
[9] = tested on: SF-268 CNS
[10] = tested on: SK-MEL-5 melanoma
[11] = tested on: SK-OV-3 ovarian
[12] = tested on: SNB-19 CNS
[13] = tested on: SW-620 colon
[14] = tested on: UO-31 renal

Row | SMILES | TGI [1] [µM] | TGI [2] [µM] | TGI [3] [µM] | TGI [4] [µM] | TGI [5] [µM] | TGI [6] [µM] | TGI [7] [µM] | TGI [8] [µM] | TGI [9] [µM] | TGI [10] [µM] | TGI [11] [µM] | TGI [12] [µM] | TGI [13] [µM] | TGI [14] [µM] | GI50 [5] [µM]
1 | COc1cc(/C=C2\N=C(c3ccccc3)N(c3nc4c(OC)ccc(OC)c4s3)C2=O)ccc1O | > 100 | > 100 | > 100 | > 100 | > 100 | > 100 | 53.2 | > 100 | > 100 | > 100 | > 100 | > 100 | > 100 | > 100 | –
2 | COc1ccccc1N1CCN(CCCN2/C(=C(\O)c3ccccc3)C(=O)c3c(C)cc(C)nc3S2(=O)=O)CC1 | > 100 | > 100 | > 100 | > 100 | > 100 | > 100 | 50 | > 100 | > 100 | > 100 | > 100 | > 100 | > 100 | > 100 | –
3 | CN1C2CCC1CC(CCNC(c1ccccc1)c1ccccc1)C2 (stereo not given) | 60.5 | > 100 | > 100 | 23.6 | > 100 | > 100 | 59.8 | 31.4 | > 100 | 25.5 | > 100 | > 100 | > 100 | 56.5 | –
4 | COc1ccc(N2C(=O)C3ON(C(C(N)=O)c4ccccc4)C(c4cc5ccccc5c5ccccc45)C3C2=O)cc1 (stereo not given) | > 50 | > 50 | > 50 | > 50 | > 50 | > 50 | > 50 | > 50 | > 50 | > 50 | > 50 | > 50 | > 50 | 34.5 | –
5 | CCNc1cc2c(cc1O)CC[C@@H]1[C@@H]2CC[C@]2(C)[C@@H](O)CC[C@@H]12 | 6.16 | 54.6 | 43.3 | 27.8 | 18.7 | 35 | 20.3 | 17.5 | 37.9 | 11.8 | > 39 | > 46.1 | 19 | 24.3 | 3.1
6 | Cc1ccccc1N=Nc1ccc(N/N=C2/CCCNC2=O)c(C)c1 | > 100 | > 100 | > 100 | > 100 | > 100 | > 100 | > 100 | > 100 | > 100 | > 100 | > 100 | > 100 | > 100 | > 100 | –
7 | NCCCCC(N)C(=O)NCCNc1ccc(NCCNC(=O)C(N)CCCCN)c2c1C(=O)c1ccccc1C2=O (stereo not given) | > 100 | > 100 | 20.1 | > 100 | > 100 | > 100 | > 100 | > 100 | > 100 | > 100 | > 100 | > 100 | > 100 | > 100 | –
8 | CCn1c(SCC(=O)NNC(=S)Nc2ccc(C)cc2)nc2ccccc2c1=O | > 100 | > 100 | > 100 | > 100 | > 100 | > 100 | > 100 | > 100 | > 100 | > 100 | > 100 | > 100 | > 100 | 55.3 | –
9 | COC(=O)CCc1cc(O)c2c(c1)C(C(=O)OC)C(c1ccc(O)c(O)c1)O2 (stereo not given) | > 84.5 | > 100 | > 100 | > 100 | > 100 | > 95.9 | > 100 | > 100 | > 100 | 20.4 | > 93 | > 100 | > 100 | > 100 | –
10 | CN(C)/C=N/S(=O)(=O)c1nn2c(C=O)c(-c3ccc(Cl)cc3)nc2s1 | 30.3 | 20.2 | 2.83 | 2.81 | 2.18 | > 22 | 2.85 | 3.2 | 12.6 | 2.98 | 29.5 | 28.8 | 1.52 | 2.18 | –
11 | O=C1N[C@@H](c2c[nH]c3cc(Br)ccc23)C(=O)N[C@H]1c1c[nH]c2cc(Br)ccc12 | > 100 | > 100 | > 100 | > 100 | > 100 | > 100 | > 100 | > 100 | > 100 | > 100 | > 100 | > 100 | > 100 | > 100 | –
